According to patent US20150105252A1, “SUBSTITUTED PYRAZOLES AS HERBICIDES” (E I DU PONT DE NEMOURS AND COMPANY, priority 2013, published 2015):

Columns and labels:
barnyardgrass [1] = assay: Test A preemergence; type: in vivo, Echinochloa crus-galli; settings: preemergence; for Barnyardgrass plant response rating (0 to 100 scale, 0 is no effect, 100 is complete control): 125 g ai/ha, visual injury approx. 10 days after treatment; for Barnyardgrass plant response rating: 500 g ai/ha, visual injury after approx. 10 days, 0 to 100 scale (0 no effect, 100 complete control)
Procedure, shortened: (§1)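 Greenhouse test in loam soil/sand blend; compounds formulated in non-phytotoxic solvent with surfactant, applied as preemergence directed soil spray or postemergence to plants 2–10 cm tall at one- to two-leaf stage. Injury rated visually versus untreated controls after approximately 10 days on a 0 (no effect) to 100 (complete control) scale.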

foxtail, giant [2] = assay: Test A preemergence; type: in vivo, Setaria faberii; settings: preemergence; for Foxtail, Giant plant response rating (0 to 100 scale): 125 g ai/ha, visual injury approx. 10 days after treatment; for Foxtail, Giant plant response rating: 500 g ai/ha, visual injury after approx. 10 days, 0 to 100 scale (0 no effect, 100 complete control)
Procedure, shortened: as §1

velvetleaf [3] = assay: Test A preemergence; type: in vivo, Abutilon theophrasti; settings: preemergence; for Velvetleaf plant response rating (0 to 100 scale): 125 g ai/ha, visual injury approx. 10 days after treatment; for Velvetleaf plant response rating: 500 g ai/ha, visual injury after approx. 10 days, 0 to 100 scale (0 no effect, 100 complete control)
Procedure, shortened: as §1

wheat = assay: Test A preemergence; type: in vivo, Triticum aestivum; settings: preemergence; for Wheat plant response rating (0 to 100 scale): 125 g ai/ha, visual injury approx. 10 days after treatment; for Wheat plant response rating: 500 g ai/ha, visual injury after approx. 10 days, 0 to 100 scale (0 no effect, 100 complete control)
Procedure, shortened: as §1

corn = assay: Test A preemergence; type: in vivo, Zea mays; settings: preemergence; for Corn plant response rating (0 to 100 scale): 125 g ai/ha, visual injury approx. 10 days after treatment; for Corn plant response rating: 500 g ai/ha, visual injury after approx. 10 days, 0 to 100 scale (0 no effect, 100 complete control)
Procedure, shortened: as §1

barnyardgrass [4] = assay: Test A postemergence; type: in vivo, Echinochloa crus-galli
Procedure, shortened: as §1

foxtail, giant [5] = assay: Test A postemergence; type: in vivo, Setaria faberii
Procedure, shortened: as §1

velvetleaf [6] = assay: Test A postemergence; type: in vivo, Abutilon theophrasti; settings: Postemergence
Procedure, shortened: as §1

sedge, umbrella = assay: Test B flood; type: in vivo, Cyperus difformis; settings: 250 g ai/ha, visual rating on 0 to 100 scale (0 no effect, 100 complete control), 13 to 15 days
Procedure, shortened: (§2)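 Visual ratings (0 = no effect, 100 = complete control) versus untreated controls were taken 13–15 days after treatment of greenhouse plants. Treatment was added to paddy water held at 3 cm depth on 2-leaf-stage seedlings.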

barnyardgrass [7] = assay: Test B flood; type: in vivo, Echinochloa crus-galli; settings: 250 g ai/ha, visual rating on 0 to 100 scale (0 no effect, 100 complete control), 13 to 15 days
Procedure, shortened: as §2

crabgrass, large = assay: Test C preemergence; type: in vivo, Digitaria sanguinalis; settings: preemergence; for Plant response rating, Crabgrass, Large: 125 g ai/ha, scale 0 to 100, 0 = no effect, 100 = complete control
Procedure, shortened: (§3)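 Visual rating, 0–100 scale (0 no effect, 100 complete control), vs untreated controls after 13–15 d greenhouse. Pre: seeds in loam/sand, treated at sowing. Post: plants in peat-based mix, 1- to 4-leaf (2–18 cm). Solvent + surfactant formulation, non-phytotoxic.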

morningglory = assay: Test C preemergence; type: in vivo, Ipomoea coccinea; settings: preemergence; for Plant response rating, Morningglory: 125 g ai/ha, scale 0 to 100, 0 = no effect, 100 = complete control
Procedure, shortened: as §3

nutsedge, yellow = assay: Test C preemergence; type: in vivo, Cyperus esculentus; settings: preemergence; for Plant response rating, Nutsedge, Yellow: 125 g ai/ha, scale 0 to 100, 0 = no effect, 100 = complete control
Procedure, shortened: as §3

pigweed = assay: Test C preemergence; type: in vivo, Amaranthus retroflexus; settings: preemergence; for Plant response rating, Pigweed: 125 g ai/ha, scale 0 to 100, 0 = no effect, 100 = complete control
Procedure, shortened: as §3

[8] = Postemergence, 500 g ai/ha, 0 to 100 scale (0 no effect, 100 complete control)
[9] = postemergence, 125 g ai/ha, about 10 days, visual rating on 0 to 100 scale (0 no effect, 100 complete control)
[10] = 125 g ai/ha, 0 to 100 scale, 0 no effect, 100 complete control
[11] = 500 g ai/ha, 0 to 100 scale (0 no effect, 100 complete control)
[12] = 31 g ai/ha, visual rating, scale 0 to 100 (0 no effect, 100 complete control), 13 to 15 days
[13] = 62 g ai/ha, scale 0 to 100 (0 no effect, 100 complete control), 13 to 15 days
[14] = 250 g ai/ha, scale 0 to 100, 0 is no effect, 100 is complete control

SMILES	Barnyardgrass plant response rating (0 to 100 scale, 0 is no effect, 100 is complete control) (barnyardgrass [1])	Barnyardgrass plant response rating (barnyardgrass [1])	Foxtail, Giant plant response rating (0 to 100 scale) (foxtail, giant [2])	Foxtail, Giant plant response rating (foxtail, giant [2])	Velvetleaf plant response rating (0 to 100 scale) (velvetleaf [3])	Velvetleaf plant response rating (velvetleaf [3])	Wheat plant response rating (0 to 100 scale) (wheat)	Wheat plant response rating (wheat)	Corn plant response rating (0 to 100 scale) (corn)	Corn plant response rating (corn)	Barnyardgrass plant response rating (barnyardgrass [4]; [8])	Barnyardgrass plant response rating (barnyardgrass [4]; [9])	Foxtail, Giant plant response rating (foxtail, giant [5]; [8])	Foxtail, Giant plant response rating (foxtail, giant [5]; [9])	Velvetleaf plant response rating (velvetleaf [6]; [10])	Velvetleaf plant response rating (velvetleaf [6]; [11])	Plant response rating, Sedge, Umbrella (sedge, umbrella)	Plant response rating, Barnyardgrass (barnyardgrass [7])	Crabgrass, Large plant response rating (crabgrass, large; [12])	Crabgrass, Large plant response rating (crabgrass, large; [13])	other results
CCNC(=O)c1cc(CC)n(Cc2ccnc(C(F)(F)F)c2)n1 [Compound 196]	90	100	100	90	80	100	20	100	10	90	90	90	100	90	80	100	70	30	98	98	Plant response rating, Crabgrass, Large (crabgrass, large; 13 to 15 days): 100; Crabgrass, Large plant response rating (crabgrass, large; [14]): 100; Morningglory plant response rating (morningglory; [12]): 98; Morningglory plant response rating (morningglory; [13]): 98; Plant response rating, Morningglory (morningglory; 13 to 15 days): 100; Morningglory plant response rating (morningglory; [14]): 100; Nutsedge, Yellow plant response rating (nutsedge, yellow; [12]): 15; Nutsedge, Yellow plant response rating (nutsedge, yellow; [13]): 65; Plant response rating, Nutsedge, Yellow (nutsedge, yellow; 13 to 15 days): 80; Nutsedge, Yellow plant response rating (nutsedge, yellow; [14]): 90; Pigweed plant response rating (pigweed; [12]): 98; Pigweed plant response rating (pigweed; [13]): 98; Plant response rating, Pigweed (pigweed; 13 to 15 days): 100; Pigweed plant response rating (pigweed; [14]): 100
Cc1cc(C(=O)NC(C)C)nn1Cc1ccnc(C(F)(F)F)c1 [Compound 197]	90	100	100	100	70	100	0	50	0	90	100	80	90	80	30	80	85	10	100	100	Plant response rating, Crabgrass, Large (crabgrass, large; 13 to 15 days): 100; Crabgrass, Large plant response rating (crabgrass, large; [14]): 100; Morningglory plant response rating (morningglory; [12]): 75; Morningglory plant response rating (morningglory; [13]): 100; Plant response rating, Morningglory (morningglory; 13 to 15 days): 100; Morningglory plant response rating (morningglory; [14]): 100; Nutsedge, Yellow plant response rating (nutsedge, yellow; [12]): 0; Nutsedge, Yellow plant response rating (nutsedge, yellow; [13]): 25; Plant response rating, Nutsedge, Yellow (nutsedge, yellow; 13 to 15 days): 75; Nutsedge, Yellow plant response rating (nutsedge, yellow; [14]): 85; Pigweed plant response rating (pigweed; [12]): 100; Pigweed plant response rating (pigweed; [13]): 100; Plant response rating, Pigweed (pigweed; 13 to 15 days): 100; Pigweed plant response rating (pigweed; [14]): 100
CCCNC(=O)c1cc(CCC)n(Cc2cc(C(F)(F)F)nn2C)n1 [Compound 198]	100	100	100	90	30	100	60	100	0	90	100	90	100	90	30	100	100	60	98	100	Plant response rating, Crabgrass, Large (crabgrass, large; 13 to 15 days): 100; Crabgrass, Large plant response rating (crabgrass, large; [14]): 100; Morningglory plant response rating (morningglory; [12]): 95; Morningglory plant response rating (morningglory; [13]): 100; Plant response rating, Morningglory (morningglory; 13 to 15 days): 100; Morningglory plant response rating (morningglory; [14]): 100; Nutsedge, Yellow plant response rating (nutsedge, yellow; [12]): 5; Nutsedge, Yellow plant response rating (nutsedge, yellow; [13]): 15; Plant response rating, Nutsedge, Yellow (nutsedge, yellow; 13 to 15 days): 30; Nutsedge, Yellow plant response rating (nutsedge, yellow; [14]): 65; Pigweed plant response rating (pigweed; [12]): 100; Pigweed plant response rating (pigweed; [13]): 100; Plant response rating, Pigweed (pigweed; 13 to 15 days): 100; Pigweed plant response rating (pigweed; [14]): 100
